Assay results from US4272437A, “Antibacterial agents, and 4-thio azetidinone intermediates” (priority 1979, dated 1981).
In brackets after ≈: the same amount, converted by molar mass. Read-outs that look alike come from different tables or passages of the source.

Legend:
[1] = tested on: Staph. aureus (Meth-Res) A-15097; assay: MIC, tube dilution, Staphylococcus aureus A15097 (Meth-Res); format: cell-based; conditions: Staphylococcus aureus, overnight 37° C.
Source text: (§1) Representative compounds of the present invention were subjected to in vitro antibiotic screening against a variety of microorganisms.

[2] = tested on: Ent. cloacae A-9656; assay: MIC, tube dilution, Enterobacter cloacae A9656; format: cell-based; conditions: overnight 37° C., read-out: Minimum Inhibitory Concentration (M.I.C.)
Source text: as §1

[3] = tested on: Pr. morganii A-15153; assay: MIC, tube dilution, Proteus morganii A15153; format: cell-based; conditions: Morganella morganii, A15153, Proteus morganii A15153; overnight 37° C.; read-out: Minimum Inhibitory Concentration (M.I.C.)
Source text: as §1

[4] = tested on: Ser. marcescens A-20019; assay: MIC, tube dilution, Serratia marcescens A20019; format: cell-based; conditions: Serratia marcescens, A20019, Serratia marcescens A20019; overnight 37° C.; read-out: Minimum Inhibitory Concentration (M.I.C.)
Source text: as §1

[5] = tested on: Klebsiella species A20468; assay: MIC, tube dilution, Klebsiella species A20468; format: cell-based; conditions: Klebsiella species (K. pneumoniae) A20468; overnight 37° C.; read-out: Minimum Inhibitory Concentration (M.I.C.)
Source text: as §1

[6] = tested on: Staph. aureus A-9537; assay: MIC, tube dilution, Staphylococcus aureus A9537; format: cell-based; conditions: Staphylococcus aureus, A9537, Staph. aureus A9537; overnight 37° C., Nutrient Broth; read-out: Minimum Inhibitory Concentration (M.I.C.)
Source text: as §1

[7] = tested on: Ps. aeruginosa A-21213; assay: MIC, tube dilution, Pseudomonas aeruginosa A21213; format: cell-based; conditions: overnight 37° C., read-out: Minimum Inhibitory Concentration (M.I.C.)
Source text: as §1

[8] = tested on: E. coli A-15119; assay: MIC, tube dilution, Escherichia coli A15119; format: cell-based; conditions: Escherichia coli, A15119, E. coli A15119; overnight 37° C.; read-out: Minimum Inhibitory Concentration (M.I.C.)
Source text: as §1

[9] = tested on: Staph. aureus (Pen-Res) A-9606; assay: MIC, tube dilution, Staphylococcus aureus A9606 (Pen-Res); format: cell-based; conditions: Staphylococcus aureus, Staph. aureus A9606 (Pen-Res); overnight 37° C.; read-out: Minimum Inhibitory Concentration (M.I.C.)
Source text: as §1

[10] = tested on: Ent. cloacae A-9659; assay: MIC, tube dilution, Enterobacter cloacae A9659; format: cell-based; conditions: Enterobacter cloacae, A9659, Enterobacter cloacae A9659; overnight 37° C.; read-out: Minimum Inhibitory Concentration (M.I.C.)
Source text: as §1

[11] = tested on: Str. pneumoniae A-9585; assay: MIC, tube dilution, Streptococcus pneumoniae A9585; format: cell-based; conditions: Streptococcus pneumoniae, A9585, Str. pneumoniae A9585; overnight 37° C., Nutrient Broth; read-out: Minimum Inhibitory Concentration (M.I.C.)
Source text: as §1

[12] = tested on: Proteus rettgeri A21203; assay: MIC, tube dilution, Proteus rettgeri A21203; format: cell-based; conditions: Providencia rettgeri, A21203, Proteus rettgeri A21203; overnight 37° C.; read-out: Minimum Inhibitory Concentration (M.I.C.)
Source text: as §1

[13] = tested on: Pr. mirabilis A-9900; assay: MIC, tube dilution, Proteus mirabilis A9900; format: cell-based; conditions: Proteus mirabilis, A9900, Proteus mirabilis A9900; overnight 37° C.; read-out: Minimum Inhibitory Concentration (M.I.C.)
Source text: as §1

[14] = tested on: Str. faecalis A-20688; assay: MIC, tube dilution, Streptococcus faecalis A20688; format: cell-based; conditions: Enterococcus faecalis, A20688, Str. faecalis A20688; overnight 37° C.; read-out: Minimum Inhibitory Concentration (M.I.C.)
Source text: as §1

[15] = tested on: Ps. aeruginosa A-9843A; assay: MIC, tube dilution, Pseudomonas aeruginosa A9843A; format: cell-based; conditions: Pseudomonas aeruginosa, A9843A, read-out: Minimum Inhibitory Concentration (M.I.C.), Pseudomonas aeruginosa A9843A; overnight 37° C.
Source text: as §1

[16] = tested on: Staph. aureus A-9537 and 50% serum; assay: MIC, tube dilution, Staph. aureus A9537 + 50% serum; format: cell-based, Staphylococcus aureus; conditions: Staphylococcus aureus, overnight 37° C., read-out: Minimum Inhibitory Concentration (M.I.C.)
Source text: as §1

[17] = tested on: E. coli A-20341-1; assay: MIC, tube dilution, Escherichia coli A20341-1; format: cell-based
Source text: as §1

[18] = tested on: K. pneumoniae A-15130; assay: MIC, tube dilution, Klebsiella pneumoniae A15130; format: cell-based; conditions: Klebsiella pneumoniae, A15130, K. pneumoniae A15130; overnight 37° C.; read-out: Minimum Inhibitory Concentration (M.I.C.)
Source text: as §1

[19] = tested on: S. aureus A9537; assay: In vivo protection of mice, lethal infection with S. aureus A9537; conditions: Staphylococcus aureus, A9537, im, IM, 2 treatments, read-out: PD50
Protocol: Representative compounds of the present invention were also tested in vivo in mice and their PD50 (dose of compound in mg/kg required to protect 50% of the treated mice against an otherwise lethal infection of a micro-organism) values determined with respect to the test organisms shown below.

[20] = tested on: Str. pyogenes A-9604; assay: MIC, tube dilution, Streptococcus pyogenes A9604; format: cell-based; conditions: Streptococcus pyogenes, A9604, Str. pyogenes A9604; overnight 37° C., Nutrient Broth; read-out: Minimum Inhibitory Concentration (M.I.C.)
Source text: as §1

[21] = tested on: Proteus vulgaris A21559; assay: MIC, tube dilution, Proteus vulgaris A21559; format: cell-based; conditions: Proteus vulgaris, A21559, Proteus vulgaris A21559; overnight 37° C.; read-out: Minimum Inhibitory Concentration (M.I.C.)
Source text: as §1

[22] = Staph. aureus A15097 (Meth-Res), read-out: Minimum Inhibitory Concentration (M.I.C.)
[23] = Enterobacter cloacae, A9656, Enterobacter cloacae A9656
[24] = Pseudomonas aeruginosa, A21213, Pseudomonas aeruginosa A21213
[25] = Escherichia coli, A203411, E. coli A20341-1; overnight 37° C.; read-out: Minimum Inhibitory Concentration (M.I.C.)
[26] = read-out: Minimum Inhibitory Concentration (M.I.C.), Staph. aureus A15097 (Meth-Res)

Compound | MIC [1, 22] | MIC [2, 23] | MIC [3] | MIC [4] | MIC [5] | MIC [6] | MIC [8] | MIC [9] | MIC [10] | MIC [11] | MIC [12] | MIC [13] | MIC [14] | MIC [15] | MIC [16] | MIC [17, 25] | MIC [18] | MIC [20] | MIC [21] | MIC ([7]; Pseudomonas aeruginosa A21213) | other results
CC(N)CCC1=C(C(=O)O)N2C(=O)C[C@H]2S1 (stereo partly drawn) [Example 80, 2-(3'-Aminobutyl)-penem-3-carboxylic Acid] | > 63 µg/mL | 8 µg/mL (≈ 33 µM) | 16 µg/mL (≈ 66 µM) | 8 µg/mL (≈ 33 µM) | > 63 µg/mL | 0.06 µg/mL (≈ 0.248 µM) | 4 µg/mL (≈ 16.5 µM) | 0.5 µg/mL (≈ 2.06 µM) | 16 µg/mL (≈ 66 µM) | 0.03 µg/mL (≈ 0.124 µM) | 8 µg/mL (≈ 33 µM) | 4 µg/mL (≈ 16.5 µM) | 16 µg/mL (≈ 66 µM) | 63 µg/mL (≈ 260 µM) | 0.25 µg/mL | 8 µg/mL (≈ 33 µM) | 8 µg/mL (≈ 33 µM) | 0.06 µg/mL (≈ 0.248 µM) | 8 µg/mL (≈ 33 µM) | – | MIC [7, 24]: > 63 µg/mL; ED50 ([19]; 8 × 10^5 organisms): 0.6 mg/kg
CCCC(N)C1=C(C(=O)O)N2C(=O)CC2S1 [Example 82, (1'R,5R and 1'S,5S) and (1'R,5S and 1'S,5R) 2-(1'-Aminobutyl)-penem-3-carboxylic Acid] | 4 µg/mL (≈ 16.5 µM) | 32 µg/mL (≈ 132 µM) | 16 µg/mL (≈ 66 µM) | 16 µg/mL (≈ 66 µM) | > 125 µg/mL | 0.25 µg/mL (≈ 1.03 µM) | 8 µg/mL (≈ 33 µM) | 16 µg/mL (≈ 66 µM) | 63 µg/mL (≈ 260 µM) | 0.016 µg/mL (≈ 0.066 µM) | 8 µg/mL (≈ 33 µM) | 4 µg/mL (≈ 16.5 µM) | 63 µg/mL (≈ 260 µM) | > 125 µg/mL | 4 µg/mL | 32 µg/mL (≈ 132 µM) | 32 µg/mL (≈ 132 µM) | 0.016 µg/mL (≈ 0.066 µM) | 8 µg/mL (≈ 33 µM) | > 125 µg/mL | ED50 ([19]; 1 × 10^6 organisms): 1.25 mg/kg
N#CCCC(N)C1=C(C(=O)O)N2C(=O)C[C@H]2S1 (stereo partly drawn) [Example 83, 2-(1'-Amino-3'-cyanopropyl)-penem-3-carboxylic Acid] | > 125 µg/mL | 4 µg/mL (≈ 15.8 µM) | 4 µg/mL (≈ 15.8 µM) | 4 µg/mL (≈ 15.8 µM) | > 125 µg/mL | 0.5 µg/mL (≈ 1.97 µM) | 2 µg/mL (≈ 7.9 µM) | 32 µg/mL (≈ 126 µM) | 16 µg/mL (≈ 63.2 µM) | 0.06 µg/mL (≈ 0.237 µM) | 4 µg/mL (≈ 15.8 µM) | 2 µg/mL (≈ 7.9 µM) | 125 µg/mL (≈ 494 µM) | 63 µg/mL (≈ 249 µM) | 8 µg/mL | 16 µg/mL (≈ 63.2 µM) | 8 µg/mL (≈ 31.6 µM) | 0.13 µg/mL (≈ 0.513 µM) | 8 µg/mL (≈ 31.6 µM) | – | MIC [7, 24]: 63 µg/mL (≈ 249 µM); ED50 ([19]; 1.1 × 10^6 organisms): 3.3 mg/kg
CC1(C)OCC(C(N)C2=C(C(=O)O)N3C(=O)CC3S2)O1 [Example 84, (1'R,2'R,5R and 1'S,2'S,5S),(1'R,2'R,5S and 1'S,2'S,5R), (1'R,2'S,5S and 1'S,2'R,5R), (1'R,2'S,5R and 1'S,2'R,5S) 2-(1'-Amino-2,3-dihydroxy-2,3-acetonylpropyl)-penem-3-carboxylic Acid] | – | – | 16 µg/mL (≈ 53.3 µM) | 63 µg/mL (≈ 210 µM) | > 125 µg/mL | 4 µg/mL (≈ 13.3 µM) | 16 µg/mL (≈ 53.3 µM) | 16 µg/mL (≈ 53.3 µM) | 125 µg/mL (≈ 416 µM) | 1 µg/mL (≈ 3.33 µM) | 32 µg/mL (≈ 107 µM) | 8 µg/mL (≈ 26.6 µM) | > 125 µg/mL | > 125 µg/mL | 32 µg/mL | – | 125 µg/mL (≈ 416 µM) | 1 µg/mL (≈ 3.33 µM) | 63 µg/mL (≈ 210 µM) | > 125 µg/mL | MIC [1, 26]: > 125 µg/mL; MIC ([2]; Enterobacter cloacae A9656): 125 µg/mL (≈ 416 µM); MIC ([17]; Escherichia coli, A203411; E. coli A20341-1; overnight 37° C.; read-out: Minimum Inhibitory Concentration (M.I.C.)): > 125 µg/mL; ED50 ([19]; 1 × 10^6 organisms): 33 mg/kg
O=C(O)C1=C(CCC[N+](=O)[O-])SC2CC(=O)N12 (stereo not drawn) [Example 91, 2-(3'-Nitropropyl)-penem-3-carboxylic Acid] | – | 2 µg/mL (≈ 7.74 µM) | 4 µg/mL (≈ 15.5 µM) | 4 µg/mL (≈ 15.5 µM) | > 125 µg/mL | 0.25 µg/mL (≈ 0.968 µM) | 1 µg/mL (≈ 3.87 µM) | 32 µg/mL (≈ 124 µM) | 4 µg/mL (≈ 15.5 µM) | 0.25 µg/mL (≈ 0.968 µM) | 2 µg/mL (≈ 7.74 µM) | 1 µg/mL (≈ 3.87 µM) | 63 µg/mL (≈ 244 µM) | 125 µg/mL (≈ 484 µM) | 16 µg/mL | 63 µg/mL (≈ 244 µM) | 16 µg/mL (≈ 62 µM) | 0.25 µg/mL (≈ 0.968 µM) | 8 µg/mL (≈ 31 µM) | 125 µg/mL (≈ 484 µM) | MIC [1, 26]: > 125 µg/mL; ED50 ([19]; 9.1 × 10^5 organisms): 9.6 mg/kg
